Consider one molecule from patent publication US20260176266A1, “PIPERIDINOPYRIMIDINE DERIVATIVE, PREPARATION METHOD THEREFOR AND USE THEREOF IN MEDICINE” (TUOJIE BIOTECH (SHANGHAI) CO., LTD., priority 2022, published 2026).

The target in one data set is CDK2/CyclinE1 (Homo sapiens, UniProt P24941). The data set can be described thus: ADP-Glo kinase assay, CDK2. The format is biochemical. Particulars: 1 nM CDK2/CyclinE1, 15 μM ATP (Km), Histone H1, 60 min; read-out: inhibitory activity (IC50, nM) CDK2. Here is the method: (§1) The ADP-Glo kinase assay was used for testing the activity of CDKs. The compounds were diluted in 384-well plates using Echo. The starting concentration was 10 μM and was 3-fold diluted to obtain 10 concentration points, each tested in duplicate, and the final concentration of DMSO in the assay system was 1%. CDK solutions (the final concentrations were 16.5 nM CDK1/CyclinB, 1 nM CDK2/CyclinE1, 16.3 nM CDK4/CyclinD1, 11.5 nM CDK5/p25, 15.7 nM CDK6/CyclinD3, 80 nM CDK7/Cyclin H/MAT1, 15.3 nM CDK9/Cyclin T1, and 150 nM CDK12/CyclinK) prepared in assay buffer were added at 2.5 μL, and the enzymes and compounds were pre-incubated at room temperature for 10 min. ATP (the concentration was Km) & substrate solutions (20 μM ATP & 0.1 mg/mL Histone H1 Protein for CDK1/CyclinB, 15 μM ATP & 0.1 mg/mL Histone H1 Protein for CDK2/CyclinE1, 200 μM ATP & 0.2 mg/mL DYRKtide peptide for CDK4/CyclinD1, 10 μM ATP & 0.1 mg/mL Histone H1 Protein for CDK5/p25, 200 μM ATP & 0.1 mg/mL Histone H1 Protein for CDK6/CyclinD3, 70 μM ATP & 0.2 mg/mL MBP for CDK7/Cyclin H/MAT1, 60 μM ATP & 0.2 mg/mL PDKtide for CDK9/Cyclin T1, and 20 μM ATP & 80 μM pS7-CTD peptide for CDK12/CyclinK) prepared in assay buffer were added at 2.5 μL. After thorough mixing, the plates were incubated at room temperature, with CDK1/4/9/12/13 incubated for 120 min and CDK2/5/6/7 incubated for 60 min. ADP-Glo reagents were added at 4 μL, and the plates were incubated at room temperature for 40 min. Kinase detection reagents were added at 8 μL, and the plates were incubated at room temperature for 40 min. Readings were taken using an Envision multimode microplate reader. Data were processed using GraphPad Prism 8, and IC50 was calculated.
(§2) [formula] • X: the logarithm of the compound concentration; Y: % inhibition.

In a further data set the target is CDK7/Cyclin H/MAT1 (Homo sapiens, UniProt P50613). Description: ADP-Glo kinase assay, CDK7. Particulars: 80 nM CDK7/Cyclin H/MAT1, 70 μM ATP (Km), MBP, 60 min; read-out: inhibitory activity (IC50, nM) CDK7. The format is biochemical. Here is the method:
as §1, §2

Data set [1] is described as follows: Human liver microsome metabolism study. The format is in vitro ADME. Particulars: human liver microsomes. Here is the method:
222.5 μL of human liver microsomes (protein concentration: 1 mg/mL) and 25 μL of NADPH ([…]) were added to an incubation plate and pre-heated for 10 min. 2.5 μL of control compound and test compound (100 μM) were added.
[…] The reaction was stopped by adding 5 volumes of cold acetonitrile containing IS (100 nM alprazolam, 200 nM caffeine, and 100 nM tolbutamide). The reaction mixture was centrifuged, and 100 μL of the supernatant was collected and mixed with 100 μL of ultrapure H2O. Then the mixture was analyzed by LC-MS/MS.
The slope value k was determined by linear regression of the natural logarithm of a curve of the parent drug remaining percentage versus incubation time.
The in-vitro half-life (in-vitro T1/2) was determined by the slope value:
Using the following equation (the average of repeated measurements), the in-vitro T½ (min) was converted to the in-vitro intrinsic clearance rate (in-vitro CLint, in μL/min/mg protein): […]

Chain of CDK7/Cyclin H/MAT1 (P50613 whole entry, species assumed): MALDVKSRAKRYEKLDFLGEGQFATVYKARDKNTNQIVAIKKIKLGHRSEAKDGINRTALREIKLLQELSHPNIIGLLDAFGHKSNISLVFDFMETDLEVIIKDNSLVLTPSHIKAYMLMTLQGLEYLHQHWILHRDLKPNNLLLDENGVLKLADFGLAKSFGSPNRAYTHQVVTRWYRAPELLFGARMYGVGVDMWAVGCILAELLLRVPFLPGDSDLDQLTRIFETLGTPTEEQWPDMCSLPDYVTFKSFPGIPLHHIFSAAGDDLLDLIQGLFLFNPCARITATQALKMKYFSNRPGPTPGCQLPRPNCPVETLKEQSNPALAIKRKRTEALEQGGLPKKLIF
Chain of CDK7/Cyclin H/MAT1 (P51946 whole entry partner, species assumed): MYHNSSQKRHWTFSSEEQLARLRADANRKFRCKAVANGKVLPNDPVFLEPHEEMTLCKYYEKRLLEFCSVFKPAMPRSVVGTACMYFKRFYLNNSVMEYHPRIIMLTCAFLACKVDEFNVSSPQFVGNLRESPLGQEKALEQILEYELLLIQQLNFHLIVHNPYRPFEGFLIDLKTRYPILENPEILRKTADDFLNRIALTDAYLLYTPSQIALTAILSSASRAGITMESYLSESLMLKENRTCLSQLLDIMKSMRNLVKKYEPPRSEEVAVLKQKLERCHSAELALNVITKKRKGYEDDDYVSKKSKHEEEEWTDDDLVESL
Chain of CDK7/Cyclin H/MAT1 (P51948 whole entry partner, species assumed): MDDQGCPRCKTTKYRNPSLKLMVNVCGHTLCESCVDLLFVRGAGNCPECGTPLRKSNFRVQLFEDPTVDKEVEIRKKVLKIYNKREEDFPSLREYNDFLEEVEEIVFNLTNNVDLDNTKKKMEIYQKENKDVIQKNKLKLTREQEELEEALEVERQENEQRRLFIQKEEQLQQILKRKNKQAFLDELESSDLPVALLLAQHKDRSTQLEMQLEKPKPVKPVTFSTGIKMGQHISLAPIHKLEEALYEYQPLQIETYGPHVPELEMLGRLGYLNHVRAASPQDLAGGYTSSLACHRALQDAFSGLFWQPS

As to `C[C@@H]1Cc2cnc(NCc3ccn(C)n3)nc2CN1C(=O)[C@H]1CCN(C)C[C@@H]1c1ccccc1` [Janssen-01, reference compound], the IC50 at CDK2/CyclinE1 is 933 nM; at CDK7/Cyclin H/MAT1, 25.2 nM. For the same molecule, in data set [1] (in-vitro half-life), the half-life at 1 μM was determined as 1.22 h. Moreover, the microsomal CLint at 1 μM in data set [1] (in-vitro intrinsic clearance) is 19 µL/min/mg. Further, the “Remaining amount % at 0.5 min” value in data set [1] (incubation 0.5 min) is 100.00%. Besides, the “Remaining amount % at 5 min” value in data set [1] (incubation 5 min) is 91.32%. For the same molecule, in data set [1] (incubation 15 min), the “Remaining amount % at 15 min” value was 78.60%. The “Remaining amount % at 30 min” value in data set [1] (incubation 30 min) was determined as 68.95%. Moreover, the “Remaining amount % at 60 min” value in data set [1] (incubation 60 min) stood at 55.59%.
